Test results published in patent US6800481B1, “Stable macroscopic membranes formed by self-assembly of amphiphilic peptides and uses therefor” (priority 1992, dated 2004).
“Also recorded” adds a separate entry of the source. Where two headings read alike, the source gives them in different places. Residues, ends and D or L forms follow the SMILES beside them.

Columns and labels:
[1] = Nucleotide hydrolysis activity; type: biochemical
From the text: In addition, the ability of small peptides such as EAK16 to self-assemble into membranes may be useful in origin of life studies related to cell membranes and cellular compartmentalization. […] This activity is probably due to the ability of lysine and glutamic acid side-chains to perform general acid and base catalysis.

[2] = type: physicochemical
Experimental: Once formed, the macroscopic membranes are stable in a variety of aqueous solutions, including water, phosphate-buffered saline (PBS), tissue culture medium, serum, and also in ethanol, and can be transferred to and stored in any of these liquids. […] The membranes can be transferred from one solution to another using a solid support such as a spatula. They can be broken by cutting, tearing or shearing.
The stability of the membranes was also tested under a range of temperature, pH and chemical conditions. For these experiments, membranes were formed by adding 20 μl of a 0.5 mM stock solution of EAK16 to 0.5 ml of PBS, and transferred into water or other solutions at test conditions.
The membranes could be frozen and thawed, although care was required in handling the frozen membranes which were brittle. In boiling water, the membranes tended to be sheared by the mechanical agitation. […] (FIGS. 9A and 9B). […] Such strong thermal stability of the defined β-sheet structure of EAK16 is unusual for a small peptide. For example, these findings contrast with the α-helix-forming sixteen residue (Ala, Glu, Lys)-containing peptides studied previously (Marqusee and Baldwin, 1987).
The EAK16 membranes were also tested in water at pH 1.5, 3, 7 and 11 at room temperature for at least a week and at 95° C. for about 4 hours. The membranes were unaffected at these pH. […] It is possible that the complementary interactions between the Glu and Lys side-chains are strong even when the carboxyl groups of the Glu residues have been protonated at pH 1.5 and 3, due to their ability to form hydrogen bonds even when protonated.
The EAK16 membranes were further tested for resistance to chemical denaturation under the following conditions: 1% and 10% sodium dodecyl sulfate (SDS); 1, 2, 3, 4, 5, 6 and 7 M guanidine-HCl; and 1, 2, 3, 4, 5, 6, 7 and 8 M urea. […] The membranes were also tested at 95° C. for 4 hours in 10% SDS; 7 M guanidine-HCl; and at 8 M urea.

[3] = type: physicochemical; settings: for [θ2] λ2 195 nm / −[θ1] λ1 218 nm: 8 μM in water
Experimental: Circular dichroism (CD) spectra were taken on an Aviv Model 60DS spectropolarimeter using program 60HDS for data processing. Because EAK16 contains both positively and negatively charged residues, the peptide itself can serve as a buffer. CD samples were prepared and measured at 25° C., unless otherwise indicated. All reagents were ultrapure and solutions were filtered through a […] before use. Circular dichroism (CD) spectroscopy was used to monitor the stability of the β-sheet structure of EAK16 under various conditions. Dilute […] concentrations. […] A 3 mM stock EAK16 solution was mixed in water to a concentration of 20 μM, allowed to equilibrate, and the CD spectrum measured. The solution was then diluted five times by two-fold serial dilutions to final concentrations of […], 10, 5.0, 2.5, 1.25 and 0.625 μM, allowed to equilibrate and CD spectra taken. […] Temperature. The CD spectra of 8 μM EAK16 at 25, 37, 55, 70 and 90° C. in water were measured. […] EAK16 has a calculated pI Of 6.71. It was assumed that changes of pH would have a great effect on the β-sheet structure, especially when the charged groups are neutralized. […] The 3 mM stock solution of EAK16 was mixed with pH buffers at pH 1.5, 3, 7, and 11 to a final concentration of 10 μM and allowed to equilibrate for 4 hours before taking CD measurements. […] Chemical denaturants. […] The peptide (3 mM stock) was mixed with water or different concentrations of guanidine-HCl or urea and allowed to incubate overnight before taking CD measurements. SDS was added to a peptide solution to a final concentration of 0.1% and incubated for 30 minutes.

PC12 cells = assay: In vitro neurite outgrowth on peptide membranes; type: cell-based, rat
Experimental: The suitability of these materials for supporting in vitro neurite outgrowth was tested by treating biomaterial-attached PC12 cells with nerve growth factor (NGF). This treatment induces PC12 cells to differentiate into sympathetic neurons which can send out long processes called neurites. There was a marked difference in the neurite promoting properties of the two materials tested (EAK16 and RAD16).
Nerve growth factor differentiated PC12 cells have been used extensively in studies of neurite outgrowth. PC12 cells upregulate the number of calcium-dependent and -independent cell adhesion receptors in response to nerve growth factor. Cell attachment and neurite outgrowth from nerve growth factor differentiated PC12 cells was examined on membranes of RAD16 and EAK16 in order to determine whether membranes containing RGD-like sequences would preferentially support these cell activities. Neurite outgrowth on peptide membranes is of interest for potential applications of nerve repair.
Untreated PC12 cells were introduced to peptide membranes of EAK16 and RAD16 suspended in 85% RMMP1, 10% heat inactivated horse serum, 5 fetal bovine serum. Half of the cells were treated with nerve growth factor (50 ng/ml, NGF) and were supplemented with NGF every 3-4 days for 14 days. […] The neurite outgrowth reached greater than 400 μm in length, approximately 15-20 times the cell body, following the contour of the matrices in a three dimensional network.

[4] = system: nerve growth factor-differentiated rat PC12 cells; type: cell-based
From the text: The membranes also appear to be non-cytotoxic. The EAK16 peptide formed macroscopic membranes when added to a tissue culture of nerve growth factor-differentiated rat PC12 cells.

resistance of membranes to chemical denaturation at room temperature ([2]; 1% and 10% SDS, 1-7 M guanidine-HCl, 1-8 M urea, room temperature at least 4 days): remained stable
membranes in 8 M urea at 95° C. ([2]; 95° C. for 4 hours, 8 M urea): dissolved
membranes in SDS and 7 M guanidine-HCl at 95° C. ([2]; 95° C. for 4 hours, 10% SDS, 7 M guanidine-HCl): remained intact
pH at which membranes and filaments are stable ([2]; alkaline and acidic pH): 1.5-11
CD spectra over temperature ([3]; 25, 37, 55, 70 and 90° C.): unaffected over the range of 25-90 °C
Ratio [θ2]/[θ1] ([3]; 25 ° C.): 3.9
[θ2] λ2 195 nm ([3]; 25 ° C.): 62 X1,000
−[θ1] λ1 218 nm ([3]; 25 ° C.): 16 X1,000
Ratio [θ2]/[θ1] ([3]; 37 ° C.): 4.0
[θ2] λ2 195 nm ([3]; 37 ° C.): 60 X1,000
−[θ1] λ1 218 nm ([3]; 37 ° C.): 15 X1,000
Ratio [θ2]/[θ1] ([3]; 55 ° C.): 3.9
[θ2] λ2 195 nm ([3]; 55 ° C.): 55 X1,000
−[θ1] λ1 218 nm ([3]; 55 ° C.): 14 X1,000
Ratio [θ2]/[θ1] ([3]; 70 ° C.): 4.1
[θ2] λ2 195 nm ([3]; 70 ° C.): 54 X1,000
−[θ1] λ1 218 nm ([3]; 70 ° C.): 13 X1,000
Ratio [θ2]/[θ1] ([3]; 90 ° C.): 4.0
[θ2] λ2 195 nm ([3]; 90 ° C.): 50 X1,000
−[θ1] λ1 218 nm ([3]; 90 ° C.): 12.5 X1,000
β-sheet structure in chemical denaturants (CD spectra) ([3]; SDS at 90° C., 1-7 M guanidine-HCl or 8 M urea at room temperature for over 16 hours): not significantly affected
decrease of mean residue ellipticity (−[θ]218 nm), thermal profile ([3]; over 25-90° C.): 22%
ratios of ellipticity at 194 nm/217 nm ([3]; over the temperature range of 25-90° C.): approximately 4.0
decrease of ellipticity (−[θ]218 nm), pH profile ([3]; pH 1.5 to 3, 7 and 11): less than 10%
Compound: CC(=O)N[C@@H](C)C(=O)N[C@@H](CCC(=O)O)C(=O)N[C@@H](C)C(=O)N[C@@H](CCC(=O)O)C(=O)N[C@@H](C)C(=O)N[C@@H](CCCCN)C(=O)N[C@@H](C)C(=O)N[C@@H](CCCCN)C(=O)N[C@@H](C)C(=O)N[C@@H](CCC(=O)O)C(=O)N[C@@H](C)C(=O)N[C@@H](CCC(=O)O)C(=O)N[C@@H](C)C(=O)N[C@@H](CCCCN)C(=O)N[C@@H](C)C(=O)N[C@@H](CCCCN)C(N)=O [EAK16] (Ac-AEAEAKAKAEAEAKAK-NH2)
nucleotide hydrolysis activity [1]: partial nucleotide hydrolysis activity
stability of membranes and filaments in liquids [2]: stable in aqueous solution, in serum, and in ethanol
stability of membranes in water or PBS [2]: stable in water or PBS for at least a week
stability of membranes in water over temperature [2]: stable in water over a wide range of temperatures: up to 95° and at 4°, −20°, and −80 °C
β-sheet structure on dilution of the peptide ([3]; 0.625 to 20 μM in water): not significantly affected by dilution of the peptide
neurite outgrowth of NGF-treated PC12 cells, in words (PC12 cells; NGF-treated PC12 cells on membranes): little neurite processes; also recorded: little neurite outgrowth
Neurite outgrowth, untreated, 14 days (PC12 cells; PC12 cells without NGF, 14 days): − (no neurite outgrowth)
effect on appearance or rate of growth of the cells [4]: did not affect the appearance or rate of growth of the cells
